# Laboratory results taken from patent publication US9927430B2, “Pro-substrates for live cell applications” (PROMEGA CORPORATION, priority 2014, dated 2018).
# “Also recorded” adds a separate entry of the source.
# Assay: Furimazine release by hydrolysis at different pH, HPLC at 262 nm
# Assay type: physicochemical
# Description: The effect of pH on the hydrolysis of the disclosed compounds may be useful for high-throughput screening (HTS). The percent furimazine released in 1 mM of PBI-5455 solutions with different pH values ranging from 5.9 to 7.6 were detected over time using HPLC at 262 nm. […] These compounds can be used to support HTS operation methods to enhance the initial brightness by adjusting pH or adding an appropriate nucleophile.
# As shown in Example 23, PBI-5455 is stable in slightly acidic buffer for 10 hrs. […] For BRET applications to detect protein-protein and/or ligand-protein interactions, if it is a one-time point reading, the concentration in media could be higher than 100-200 μM.
smiles,measurement,setting,value
"CC(=O)NC(CC(=O)O)C(=O)NC(CC(=O)O)C(=O)NC(CC(=O)O)C(=O)N(C)CCN(CCCN1CCOCC1)C(=O)Oc1c(Cc2ccco2)nc2c(Cc3ccccc3)nc(-c3ccccc3)cn12 (centres unmarked) [PBI-5455, Ac-DDD-MOP-C2-FRZ]",release of furimazine by hydrolysis,"1 mM solutions, pH values ranging from 5.9 to 7.6, over time, HPLC at 262 nm (FIG. 14)","pH dependent; also recorded: The higher the pH, the faster the release"
same,stable in buffer (time),slightly acidic buffer,10 h
